Where a name gives a salt, the structure may show the parent alone.
What was measured:
[1] = Physical properties of salts of Compound A (hygroscopicity, hydrate stability); assay type: physicochemical; conditions: solid salt
rats = experiment: Lung function assay (forced expiratory maneuvers after ovalbumin challenge); assay type: in vivo; conditions: 5 hr before antigen challenge
Description: Two fasted Sprague Dawley rats were dosed orally at 10 mpk with compound in 0.4% HPMC vehicle. The dose volume was 5 ml/kg dose. Plasma was collected at 0.5, 1, 2, 3, 4, and 6 hr. Blood samples were collected with heparin, and the plasma was stored with EDTA.
Lung function was measured using a forced expiratory maneuvers technique. In this procedure, the rats were anesthetized and a tracheal catheter was inserted. The rats were placed inside a whole body plethysmograph that contained a breathing valve capable of separating inflations and deflations of the lungs. The lungs were then subject to forced inflation of the lungs to total lung capacity followed by rapid deflation to residual volume. Measurements of forced vital capacity and peak expiratory flow were used to measure the effects of antigen challenge and assess the inhibitory effects of the compound of formula I. The drug was admixed with lactose for intratracheal delivery and given directly into the trachea with a fine microsprayer 5 hr before the antigen challenge. Orally delivered compound was given in 0.4% methylcellulose vehicle 5 hr before the antigen challenge. Control animals received intratracheal lactose or methylcellulose, respectively. The antigen challenge consisted of aerosolized exposure for 30 min to 1% ovalbumin. Forced expiratory lung functions were measured 24 hr after the antigen (ovalbumin) exposure.

inflammatory cells = experiment: Allergic Brown-Norway rat assay: inhibition of recruitment of inflammatory cells into the airways (BALF cell counts after OVA challenge); assay type: in vivo, Brown-Norway rats
Description: Assay Protocol for Allergic Brown-Norway Rats:
Inbred male BN rats weighing 150 to 200 g were obtained from Charles River Laboratory (Wilmington, Mass.). Prior to use, the animals were allowed food and water ad libitum. The test compounds were administered 5 h prior to antigen challenge either by oral or inhalational route, as detailed in the “delivery of test compounds” section.
Sensitization and Antigen Bronchoprovocation
The animals were divided into two main groups viz. an alum group and an antigen group. In the antigen group, animals were sensitized by an intra-peritoneal (i.p.) injection of 1 ml alum-precipitated antigen containing 20 μg of ovalbumin (OVA, grade III; Sigma chemical Co., St Louis, Mo.) and 8 mg of Al(OH)3 suspended in 0.9% saline vehicle. A booster injection of this alum-OVA mixture was given again 7 days later. Animals belonging to the alum group received injections containing alum only. Seven days after the second injection, animals were exposed to aerosolized antigen bronchoprovocation which was performed by placing the rats in an enclosed plexiglass chamber (21 liters) and exposing the rats to aerosolized OVA (1%) for 30 min. The aerosolized OVA was produced by an ultrasonic nebulizer (DeVilbiss, Somerset, Pa., USA; Model Ultra-Neb 99) at a flow rate of approximately 8 liters/min. […]

Rat PK assay = assay type: in vivo, Sprague Dawley rats; conditions: Sprague Dawley, plasma, 30 mg/kg, 30 mpk po
Description: Using the above test procedure, the following results were obtained: • tartrate salt: monkey AUC=30 ng.h/mL at 10 mpk po • xinafoate salt: monkey AUC=0 ng.h/mL at 10 mpk po Assay Protocol for Rat PK Assay:
[…] The dose volume was 5 ml/kg dose. Plasma was collected at 0.5, 1, 2, 3, 4, and 6 hr. Blood samples were collected with heparin, and the plasma was stored with EDTA.

Molecule | stability of crystalline forms [1] | hygroscopicity [1] | inhibition of forced vital capacity (FVC) (rats; 0.02 mpk it (intra-tracheal)) [%] | inhibition of forced vital capacity (FVC) (rats; 3 mpk po) [%] | inhibition of inflammatory cells (inflammatory cells; 0.02 mpk, intra-tracheal dosing, 5 h prior to antigen challenge, allergic BN rats) [%] | better inhibition of inflammatory cells via intra-trachea administration compared to oral administration (inflammatory cells; intra-trachea vs oral administration) [fold] | AUC (Rat PK assay) [ng·h/mL]
fumarate | unstable hydrates | – | – | – | – | – | –
CCOC(=O)[C@@H]1C[C@@H](NC(=O)C2CC2)CN1C(=O)c1nc(-c2ccc(OC)c3nc(C(F)(F)F)ccc23)oc1[C@H](C)N [xinafoate salt, xinafoate salt of 1-[[5-(1(S)-aminoethyl)-2-[8-methoxy-2-(trifluoromethyl)5-quinolyl]-4-oxazolyl]carbonyl]-4(R)-[(cyclopropyl-carbonyl)amino]-L-proline, ethyl ester] | – | non-hygroscopic | 54 | 31 | 69 | 25 | 350

Source: patent US7919505B2, “Xinafoate salt of a substituted 5-oxazol-2-yl-quinoline compound” (Schering Corporation, priority 2006, dated 2011)
